Assay results published in patent publication US10450327B2, “Epidithiodioxopiperazine compound or its derivatives, and the use thereof” (priority 2011, dated 2019).

Legend:
VEGFR2 and ERK = assay: VEGF-induced signaling, immunoblot, PrxII knocked down HAECs; format: cell-based, human; settings: 2 hours pretreatment, VEGF 10 minutes
Protocol: The cells were rinsed with an ice-cold phosphate buffered saline (PBS) solution and then lysed in an extraction buffer solution containing 20 mM Hepes (pH 7.0), 1% Triton X-100, 150 mM NaCl, 10% glycerol, 1 mM EDTA, 2 mM EGTA, 1 mM DTT, 5 mM Na3VO4, 5 mM NaF, 1 mM AEBSF, aprotinin (5 μg/ml), and leupeptin (5 μg/ml). After being centrifuged at 12,000×g, the purified cell extracts were used for immunoblotting. In order to adjust the loading, the membranes were stripped by shaking them for 30 minutes at 60° C. in 67 mM Tris (pH 6.7), 2% SDS, and 100 mM 2-mercaptoethanol solution, and reprobed with an appropriate pan antibody.
In addition, the regulatory effects of GT on the PDGFRβ- and VEGFR2-mediated signaling pathway were examined. The GT treatment in HASMCs was quite different from PDGF-induced tyrosine phosphorylation that was enhanced by the PrxII knockdown (FIG. 12a). […] Conversely, the GT treatment in HAECs restored the VEGF-dependent activation of VEGFR2 and ERK that had been diminished by the PrxII knockdown (FIG. 12b). The effects of GT in vascular cell fuction were further validated.
Lastly, the effects of GT, a representative ETP compound, on vascular cells were compared with the effects of other compounds known as anti-oxidant compounds such as N-acetylcysteine or butylated hydroxyanisole, and the results are shown in FIG. 33. Immunoblotting was performed by pretreating HAECs in which PrxII was knocked down by injecting siRNA with each compound at the concentrations indicated in the graphs for two hours, and then treating with VEGF for 10 minutes. […] These comparative experiments led the inventors of the present invention to conclude that the distinguished […] function of the ETP compounds is clearly due to the PrxII-analogous activity, and additionally to the special chemical property of the dithioketopiperazine ring.

[1] = test system: human aortic smooth muscle cells (HASMCs); assay: Cytotoxicity (cell viability), HASMCs; format: cell-based; settings: compared with gliotoxin and A1 to A9
Protocol: (§1) Most ETP compounds have been known to be cytotoxic to animal cells. Accordingly, the inventors of the present invention determined a safe concentration range of the epidithiodioxopiperazine compound or its derivatives in vascular cells. For this, human aortic smooth muscle cells (HASMCs) and human aortic endothelial cells (HAECs) were pretreated for 2 hours with various concentrations of gliotoxin or chaetocin, and A1 to A9 that are ETP derivatives according to the present invention, and cultured in a fresh medium for 24 hours followed by cell viability assay (FIGS. 6 to 10).

[2] = test system: human aortic endothelial cells (HAECs); assay: Cytotoxicity (cell viability), HAECs; format: cell-based; settings: compared with gliotoxin and A1 to A9
Protocol: as §1

NADPH oxidase (NOX) = assay: NADPH oxidase activity assay (whole cell superoxide production); format: cell-based, human; settings: HASMCs with PDGF-B and HAECs with VEGF-A; until concentrations increased up to 500 nM
Protocol: Whole cell superoxide production was measured using an enhanced luminescence system (Diogenes, National Diagnostics). For the assay, the serum-starved cells were pre-incubated with a 100 μl Diogene reagent at 37° C. for 5 minutes. After being stimulated by the indicated growth factor, chemiluminescence was detected every second for 10 minutes with a TD-20/20 Luminometer (Turner Biosystems).
When HASMCs and HAECs were stimulated with PDGF-B and VEGF-A, respectively, the NOX activity increased approximately twofold. […] Thus, it was seen that these ETP compounds function as hydrogen peroxide reductase capable of replacing PrxII in both vascular cells, but the mechanism was not the inhibition of hydrogen peroxide producer NOX.

SK-MEL28 melanoma cells = format: cell-based, human; settings: at a concentration of 100 nM; tested 0, 100, 200, 500 and 1000 nM
Protocol: Specifically, after chaetocin and chetomin was treated with SK-MEL28 melanoma cells at different concentrations (0, 100, 200, 500 and 1000 nM), the cell viability was checked, and the result is shown in FIG. 54A.

[3] = test system: yeast thioredoxin (Trx) / yeast thioredoxin reductase (TR) system; assay: Peroxidase activity assay (hydrogen peroxide reduction), Trx/TR system; format: biochemical
Protocol: (§2) The peroxidase activity assay for the epidithiodioxopiperazine derivatives according to the present invention (hereinafter, referred to as ETP compounds) was performed according to known methods [Korean Patent No. 10-0953326]. A standard peroxidase reaction for spectrophotometric assay was carried out using a 200 μl reaction mixture of 1 mM EDTA-containing 50 mM Hepes-NaOH buffer solution (pH 7.0) including 250 μM NADPH, 3 μM yeast thioredoxin (Trx), 1.5 μM yeast thioredoxin reductase (TR), 25 μM ETP compound and […] of hydrogen peroxide. For the comparison with a glutathione (GSH)-dependent peroxidase reaction, GSH (1 mM) and yeast glutathione reductase (GSH reductase; GR) (1 Unit) were added instead of yeast Trx and TR. Each reaction was initiated by adding hydrogen peroxide, and the NADPH oxidation was monitored for 12 minutes at 30° C. according to absorbance decrease at 340 nm using an Agilent UV8453 spectrophotometer (Hewlett Packard, USA). The initial reaction rate was calculated using the linear portion of the curve and expressed as the amount of NADPH oxidized per minute.
The chemical feature of the epidithiodioxopiperazine compound of the present invention or its derivatives is the intramolecular disulfide bridge present in the epidithiodioxopiperazine ring moiety. Cellular peroxidase reduces hydrogen peroxide utilizing the electrons derived from NADPH via two electron-transfer routes, that is, Trx/TR or GSH/GR, therefore, spectrophotometric assay was performed for the hydrogen peroxide-reducing activity in the presence of each system, and the results are shown in FIGS. 1 to 5.

[4] = test system: GSH / yeast glutathione reductase (GR) system; assay: Peroxidase activity assay (hydrogen peroxide reduction), GSH/GR system; format: biochemical; settings: 25 μM ETP compound, GSH 1 mM, GR 1 Unit
Protocol: as §2
The chemical feature of the epidithiodioxopiperazine compound of the present invention or its derivatives is the intramolecular disulfide bridge present in the epidithiodioxopiperazine ring moiety. […]

SK-MEL-28 (SK28) cells = assay: Melanoma proliferation and migration assay, SK28; format: cell-based, human; settings: 100 nM, 1 hour pretreatment
Protocol: The extent of cell proliferation was measured using a WST-1 cell proliferation assay kit (Roche Diagnostics, USA) according to the protocol of the manufacturer. The number of cells was expressed as an absorbance value at 450 nm averaged from 3 wells after subtracting the turbidity at 600 nm. The chemotactic transmigration assay was performed in a 24-well Transwell culture chamber (Costar; polycarbonate membrane insert with 8-μm pore size). The bottom of the insert was coated with gelatin B (1 mg/ml) and air-dried for 1 hour. Retroviruses or transfection complexes were treated to melanoma cells (6×10^3). After 24 hours, the infected or transfected melanoma cells were serum-starved for 18 hours. A 20% FBS solution was added to bottom chambers including a basal medium containing 0.5% BSA. The upper chamber wells were each filled with a basal medium including 0.5% BSA. The Transwell chamber was incubated for 12 hours in a 37° C./5% CO2 incubator. After the incubation, the non-migrating cells at the top of the filter were removed. The cells that migrated onto the bottom of filter were fixed and stained with 0.6% hematoxylin and 0.5% eosin. The stained cells were photographed and counted. The number of migrating cells was averaged from 3 wells. […]

B16F10 melanoma cells = assay: Metastasis of B16F10 melanoma cells to lung in mouse; format: in vivo; settings: i.p. 5 times over 10 days after i.v. injection of B16F10 cells
Protocol: After B16F10 cells were temporarily transfected with PrxII siRNA for 24 hours and trypsinized, the cells were resuspended in a Hank's balanced salt solution (HBSS). The cell suspension was injected by intravenous injection to a C57/BL6 mouse (1×10^6 cells per mouse). The mouse was sacrified after 10 days, and the lung was removed after transcardia perfusion-fixation with a heparinized saline solution including 3.7% formaldehyde. The removed lung was paraffin embedded and sectioned using a rotary microtome (Leica RM2255). Two serial tissue sections (4 μm in thickness) were stained with haematoxylin and eosin. The melanoma tumor nodules metastasized from the surface of the lung and the HE-stained tissue sections were counted. In order to verify the effects of gliotoxin (GT), chaetocin and chetomin, the melanoma cells were intravenously injected to the C57/BL6 mouse, and then gliotoxin (300 mg/kg) was intraperitoneally injected for 5 times over 10 days.

CC(=O)N[C@@H](CS)C(=O)O [N-acetylcysteine]
VEGF-dependent activation of VEGFR2 and ERK (VEGFR2 and ERK): did not induce

COc1ccc(O)c(C(C)(C)C)c1 [butylated hydroxyanisole]
VEGF-dependent activation of VEGFR2 and ERK (VEGFR2 and ERK): did not induce

CN1C(=O)[C@@]23C[C@]4([C@]56C[C@@]78SS[C@@](CO)(C(=O)N7[C@H]5Nc5ccccc56)N(C)C8=O)c5ccccc5N[C@@H]4N2C(=O)[C@]1(CO)SS3 [chaetocin]
relative toxicity to HASMCs [1]: relatively less toxic
relative toxicity to HAECs [2]: relatively less toxic
NOX activity (NADPH oxidase (NOX)): did not inhibit
toxicity (cell viability) (SK-MEL28 melanoma cells): toxicity was not shown

CN1C(=O)[C@]2(Cc3cn([C@]45C[C@@]67SS[C@@](CO)(C(=O)N6[C@H]4Nc4ccccc45)N(C)C7=O)c4ccccc34)SS[C@@]1(CO)C(=O)N2C [chetomin]
activity in the presence of a Trx/TR system relative to the activity of GT [3]: approximately two-fold higher
hydrogen peroxide-reducing activity in the presence of a Trx/TR system ([3]; 25 μM ETP compound, 30° C., NADPH oxidation at 340 nm): 8.62 ± 0.51 nmol/min
hydrogen peroxide-reducing activity in the presence of a GSH/GR system [4]: 2.53 ± 0.79 nmol/min
proliferation and migration responding to serum stimulation, SK28 (SK-MEL-28 (SK28) cells): effectively impeded
toxicity (cell viability) (SK-MEL28 melanoma cells): toxicity was not shown
metastasis of B16F10 melanoma cells to lung (tumor nodules) (B16F10 melanoma cells): significantly reduced
